Experimental data: patent publication EP0550007A2, “Eseroline derivatives having anticholinesterase activity, a process for their preparation and pharmaceutical compositions containing them” (priority 1991, dated 1993)

Assays:
[1] = test system: mouse; assay: analgesic activity, 2-phenylbenzoquinone test; format: in vivo
Source text: Expte. Biol. Med. 95, 729, (1957).]
The procedure followed represents a modification of the test developed by Hoffner [Dtsch. Med. Wschr. 55, 731 (1929)].

[2] = antagonist effect on the stimulating effect of scopolamine (motor activity), ESE series; format: in vivo; details: oral administration of 2.5 mg; scopolamine 1 mg/kg
Experimental: This is countered by the oral administration of 2.5 mg of ESE001, ESE002, ESE003, ESE004.

[3] = toxicity, LD50 i.p. (Table 1); format: in vivo; details: 50 % of the animals died within 24 hours from the administration; for LD50 at 24 h: in vivo, ip
Experimental: LD50 is determined for the dose (mg/kg) at which 50 % of the animals died within 24 hours from the administration.

[4] = biological target: T1, acetylcholinesterase (Mus musculus, UniProt P21836); assay: inhibition of acetylcholinesterase activity on the mouse brain after single doses; format: in vivo; details: for suppression of the enzymatic activity: even at higher doses; for duration of the inhibitory activity compared with physostigmine: mouse brain acetylcholinesterase; for inhibition of the acetylcholinesterase activity, on the mouse brain: single doses in the range 0.4 - 7 mg/kg
T1 construct: from tissue; host or cells: mouse brain
T1 sequence (P21836 32-614): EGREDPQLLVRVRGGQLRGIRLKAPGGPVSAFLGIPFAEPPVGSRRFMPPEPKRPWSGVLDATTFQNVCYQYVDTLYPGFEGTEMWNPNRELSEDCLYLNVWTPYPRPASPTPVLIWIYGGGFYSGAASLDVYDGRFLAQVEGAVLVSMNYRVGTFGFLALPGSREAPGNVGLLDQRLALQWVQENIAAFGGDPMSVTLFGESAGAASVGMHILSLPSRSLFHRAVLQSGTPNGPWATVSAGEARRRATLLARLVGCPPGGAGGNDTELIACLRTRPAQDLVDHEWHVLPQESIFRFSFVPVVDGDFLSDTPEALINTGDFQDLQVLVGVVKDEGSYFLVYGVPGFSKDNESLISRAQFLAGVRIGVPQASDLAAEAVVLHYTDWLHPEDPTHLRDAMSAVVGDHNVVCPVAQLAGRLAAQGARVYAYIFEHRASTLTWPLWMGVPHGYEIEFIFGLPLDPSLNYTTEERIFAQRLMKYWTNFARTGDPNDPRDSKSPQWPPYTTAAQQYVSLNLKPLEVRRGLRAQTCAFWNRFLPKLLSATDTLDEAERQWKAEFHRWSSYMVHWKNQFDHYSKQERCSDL

[5] = pharmacokinetics in mouse after oral and intramuscular administration; format: in vivo
Experimental: The kinetics of the four products to be considered, is studied in mouse after oral and intramuscular administration, of respectively 7 and 3.5 mg/kg respectively of ESE001, ESE002, ESE003, ESE004.

[6] = test system: mouse; assay: spontaneous motility (Dews' method modified according to Carminati); format: in vivo, mouse (SWISS strain); details: for reduction of spontaneous motility: oral, starting from minimal doses of 3.5-5 mg/kg, on average; for minimal doses causing a marked reduction of spontaneous motility: orally administered
Source text: The Dews' method was utilized, as modified according to Carminati (Arch. Int. Pharmacodyn. et Thér. 181, 68,1969).

[7] = preliminary pharmacokinetics, plasma level by HPLC; format: in vivo, Wistar rats; details: rats, 6.2 mg/kg/os
Source text: The presence of the substance in the plasma was evidenced by HPLC. With this method, the identification threshold was 0.15 mcg per ml of plasma.

[8] = acute toxicity, oral LD50 in the mouse; details: mouse, in vivo, po
Source text: (§1) The mouse was used (Swiss strain having the average weight of the male mice being 26 g and 22 g that of the female mice: 5+5 animals per dose, observation period: 7days) The oral LD50 (suspension in 2% carboxymethylcellulose) were reported hereinbelow: Tab.2

[9] = test system: acetylcholinesterase activity (AchE); assay: in vivo anticholinesterase activity (blood and brain, Ellman colorimetric method); parameters: species or system Wistar male rats; details: rats, oral, 1.5 to 4 mg/kg; sacrificed after 20, 60 and 120 minutes
Experimental: The derivatives, under question and physostigmine suspended in 2% carboxymethylcellulose, were orally administered to groups of Wistar male rats (average weight about 250 g).
On the base of the obtained results in preliminary trials, the doses utilized for the comparison were comprised beween 0.2 and 0.4 mg/kg for physostigmine and between 1.5 and 4 mg/kg for the eseroline derivatives under question.
The groups of treated rats were sacrificed after 20, 60, and 120 minutes and the blood and the brain of each animal were immediately cooled to 0°C and maintained at this temperature during the successive treatments.
The acetylcholinesterase activity (AchE) was determined by using the Ellman et al's quick colorimetric method (Biochem. Pharmacol., 7, 88, 1961) and it was expressed as enzymatic inhibition percentage.

[10] = test system: mouse; assay: acute toxicity, oral LD50 in the mouse; details: oral, suspension in 2% carboxymethylcellulose, observation period 7 days
Source text: as §1

## CN1CC[C@@]2(C)c3cc(OC(=O)N4CCCC4)ccc3N(C)[C@@H]12 (relative stereo) [ESE001, (3-aS-cis)-1,2,3,3a,8,8a-hexahydro 1,3a,8-trimethylpyrrole [2,3-B]-indole 5-ol-1-pyrrolidinyl-carbamate ester]
[1]
  analgesic activity: show also analgesic activity
[2]
  countering of the stimulating effect of scopolamine: countered
[3]
  LD50: 5 mg/kg
[4]
  suppression of the enzymatic activity: do not suppress the enzymatic activity
  duration of the inhibitory activity compared with physostigmine: last longer than that of physostigmine
  inhibition of the acetylcholinesterase activity, on the mouse brain: dose-dependence, reversible inhibition
[5]
  liver kinetics / excretion: pass through into the urine unchanged

## CN1CC[C@@]2(C)c3cc(OC(=O)NN4CCNCC4)ccc3N(C)[C@@H]12 [ESE002, (3-aS-cis)-1,2,3,3a,8,8a-hexahydro 1,3a,8-trimethylpyrrole [2,3-B]-indole 5-ol-1-piperazinyl-carbamate ester]
[1]
  analgesic activity: show also analgesic activity
[2]
  countering of the stimulating effect of scopolamine: countered
[3]; 1440 min
  LD50: <80 mg/kg
[3]
  LD50 at 24 h: > 40 mg/kg
[4]
  suppression of the enzymatic activity: do not suppress the enzymatic activity
  duration of the inhibitory activity compared with physostigmine: last longer than that of physostigmine
  inhibition of the acetylcholinesterase activity, on the mouse brain: dose-dependence, reversible inhibition
[5]
  liver kinetics / excretion: pass through into the urine unchanged

## CN1CC[C@@]2(C)c3cc(OC(=O)NN4CCOCC4)ccc3N(C)[C@@H]12 [ESE003, (3-aS-cis)-1,2,3,3a,8,8a-hexahydro 1,3a,8-trimethylpyrrole [2,3-B]-indole 5-ol-1-morpholinyl-carbamate ester]
[1]
  analgesic activity: show also analgesic activity
[2]
  countering of the stimulating effect of scopolamine: countered
[3]; 1440 min
  LD50: <80 mg/kg
[3]
  LD50 at 24 h: > 40 mg/kg
[4]
  suppression of the enzymatic activity: do not suppress the enzymatic activity
  duration of the inhibitory activity compared with physostigmine: last longer than that of physostigmine
  inhibition of the acetylcholinesterase activity, on the mouse brain: dose-dependence, reversible inhibition
[5]
  liver kinetics / excretion: pass through into the urine unchanged

## CN1CC[C@@]2(C)c3cc(OC(=O)NN4CCSCC4)ccc3N(C)[C@@H]12 [ESE004, (3-aS-cis)-1,2,3,3a,8,8a-hexahydro 1,3a,8-trimethylpyrrole [2,3-B]-indole 5-ol-1-thio-morpholinyl-carbamate ester]
[1]
  analgesic activity: show also analgesic activity
[2]
  countering of the stimulating effect of scopolamine: countered
[3]; 1440 min
  LD50: <80 mg/kg
[3]
  LD50 at 24 h: > 40 mg/kg
[4]
  suppression of the enzymatic activity: do not suppress the enzymatic activity
  duration of the inhibitory activity compared with physostigmine: last longer than that of physostigmine
  inhibition of the acetylcholinesterase activity, on the mouse brain: dose-dependence, reversible inhibition
[5]
  liver kinetics / excretion: pass through into the urine unchanged

## CN1CC[C@@]2(C)c3cc(OC(=O)NN4CCN(CCO)CC4)ccc3N(C)[C@@H]12 [ESE005]
[3]; 1440 min
  LD50: >40 mg/kg
[3]
  LD50 at 24 h: < 80 mg/kg

## CN1CC[C@@]2(C)c3cc(OC(=O)NN4CCCNCC4)ccc3N(C)[C@@H]12 [ESE006, (3-aS-cis)-1,2,3,3a,8,8a-hexahydro 1,3a,8-trimethylpyrrole [2,3-B]-indole 5-ol-homopiperazinylcarbamate ester]
[3]; 1440 min
  LD50: <80 mg/kg
[3]
  LD50 at 24 h: > 40 mg/kg

## CC1CCCC(C)N1NC(=O)Oc1ccc2c(c1)[C@]1(C)CCN(C)[C@@H]1N2C (stereo partly drawn) [ESE007, (3-aS-cis)-1,2,3,3a,8,8a-hexahydro 1,3a,8-trimethylpyrrole [2,3-B]-indole 5-ol-1-(2,6-dimethyl) piperidine carbamate ester]
[3]; 1440 min
  LD50: < 80 mg/kg
[3]
  LD50 at 24 h: > 40 mg/kg

## CCCC1CN(NC(=O)Oc2ccc3c(c2)[C@]2(C)CCN(C)[C@@H]2N3C)CCO1 (stereo partly drawn) [ESE009, (3-aS-cis)-1,2,3,3a,8,8a-hexahydro 1,3a,8-trimethylpyrrole [2,3-B]-indole 5-ol-4-(3-propyl)-morpholinylcarbamate ester]
[3]; 1440 min
  LD50: < 60 mg/kg
[3]
  LD50 at 24 h: > 30 mg/kg

## CCCC1CCCN(NC(=O)Oc2ccc3c(c2)[C@]2(C)CCN(C)[C@@H]2N3C)C1C (stereo partly drawn) [ESE010, (3-aS-cis)-1,2,3,3a,8,8a-hexahydro 1,3a,8-trimethylpyrrole [2,3-B]-indole 5-ol-1-(3-propyl)-2-pipecolinylcarbamate ester]
[3]; 1440 min
  LD50: < 60 mg/kg
[3]
  LD50 at 24 h: > 30 mg/kg

## CCCC1CCN(NC(=O)Oc2ccc3c(c2)[C@]2(C)CCN(C)[C@@H]2N3C)C1=O (stereo partly drawn) [ESE011, (3-aS-cis)-1,2,3,3a,8,8a-hexahydro 1,3a,8-trimethylpyrrole [2,3-B]-indole 5-ol-1-(3-propyl)-2 pyrrolidone-carbamate ester]
[3]; 1440 min
  LD50: < 60 mg/kg
[3]
  LD50 at 24 h: > 30 mg/kg

## CN1CC[C@@]2(C)c3cc(OC(=O)NC4CN5CCC4CC5)ccc3N(C)[C@@H]12 (stereo partly drawn) [ESE012, (3-aS-cis)-1,2,3,3a,8,8a-hexahydro 1,3a,8-trimethylpyrrole [2,3-B]-indole 5-ol-3 quinuclidyl-carbamate ester]
[3]; 1440 min
  LD50: < 60 mg/kg
[3]
  LD50 at 24 h: > 30 mg/kg

## CN1CC[C@@]2(C)c3cc(OC(=O)N[C@H]4CCCCNC4=O)ccc3N(C)[C@@H]12 [MGT1, eseroline R-caprolactam carbamate]
[6]
  reduction of spontaneous motility: ~-39%
  minimal doses causing a marked reduction of spontaneous motility: 3.5 to 5 mg/kg
[7]
  maximum peak in plasma: 36.14 ± 7.12 µg/mL
  time of the maximum peak: 90 '
[7]; after 24 hours
  concentration in plasma: 5.09 ± 1.71 µg/mL
[7]; time not given
  concentration in plasma: 17.11 ± 3.81 µg/mL
[8]
  LD50 at 168 h: 322 mg/kg

## CN1CCC2(C)c3cc(OC(=O)NC4CCCN(CCO)C4=O)ccc3N(C)C12 (centres unmarked) [MGT3, eseroline N-ethanol-2-piperidone-3 aminocarbamate]
[6]
  reduction of spontaneous motility: ~-39%
  minimal doses causing a marked reduction of spontaneous motility: 3.5 to 5 mg/kg
[9]
  inhibitory activity of the acetylcholinesterase: evident dose dipendent and reversible inhibitory activity
[10]
  LD50 in the mouse: 383,7 ± 41,2 mg/kg

## CN1CC[C@@]2(C)c3cc(OC(=O)N[C@H]4C(O)O[C@H](CO)[C@@H](O)[C@@H]4O)ccc3N(C)[C@@H]12 (stereo partly drawn) [MGT4, eseroline N-D-glucosamine carbamate]
[6]
  reduction of spontaneous motility: ~-39%
  minimal doses causing a marked reduction of spontaneous motility: 3.5 to 5 mg/kg
[8]
  LD50 at 168 h: 398 mg/kg

## CN1CC[C@@]2(C)c3cc(OC(=O)Nc4ccc5c(c4)OCO5)ccc3N(C)[C@@H]12 [MGT7, eseroline 1,3 benzodioxol-5 carbamate]
[6]
  reduction of spontaneous motility: ~-39%
  minimal doses causing a marked reduction of spontaneous motility: 3.5 to 5 mg/kg
[9]
  inhibitory activity of the acetylcholinesterase: evident dose dipendent and reversible inhibitory activity
[8]
  LD50 at 168 h: 332 mg/kg

## CNC(=O)Oc1ccc2c(c1)[C@]1(C)CCN(C)[C@@H]1N2C [Physostigmine, reference compound]
[3]
  LD50 at 24 h: 0.64 mg/kg
[10]
  LD50 in the mouse: 4,39 ± 1,14 mg/kg
